Data set [1] relates to several mammalian cell types. Conditions: energy-independent manner; cited from earlier work.
Data set [2] in a line: Survival during 6 weeks treatment after coronary occlusion. Type of data set: in vivo, rat. Conditions: 74 rats randomized to peptide or water, following 6 weeks treatment. On the procedure:
Rats were anesthetized, ventilated, and a thoracotomy performed in the left 4th intercostal space. Temperature was maintained at 36° C. by placing the rats on a heating pad during the procedure. The pericardium was excised and the proximal left coronary artery isolated and permanently occluded with a suture. Coronary artery occlusion was confirmed by cyanosis and akinesis of the anterior wall of the ventricle. The chest was closed, air evacuated, and the rats allowed to recover. Analgesia was administered per the veterinarian. An echocardiogram was obtained at approximately 15 minutes post coronary artery occlusion. At 2 hours rats were randomized to receive chronic daily D-Arg-2′6′-Dmt-Lys-Phe-NH2 (delivered subcutaneously by an Alzet Osmotic Pump—3 mg/kg/day) or water. […] Heart rate and blood pressure were measured. A Millar catheter was inserted into the left ventricle and LV systolic pressure, LV end diastolic pressure, +dP/dt, and −dP/dt were measured. […] Postmortem LV volume was measured by filling the LV cavity with fluid and measuring the total fluid. […] Quantitative histologic analysis included: total circumference, scar circumference, non-infarcted wall circumference, total LV area, total LV cavity area, LV wall thickness (at several points), non-infarcted wall thickness; myocardial infarct expansion index. […]

Square brackets hold non-standard residues; d marks the D form. Peptide text beside a SMILES is read from it. Dmt = Cc1cc(O)cc(C)c1C[C@H](N)C(=O)O

Turning to 2′,6′-Dmt-D-Arg-Phe-Lys-NH2, in data set [1], the “penetration of the plasma membrane” value is “readily penetrates”.
With `Cc1cc(O)cc(C)c1C[C@H](NC(=O)[C@H](N)CCCNC(=N)N)C(=O)N[C@@H](CCCCN)C(=O)N[C@@H](Cc1ccccc1)C(N)=O` [D-Arg-2′6′-Dmt-Lys-Phe-NH2] (H-[dR][Dmt]KF-NH2), the deaths during treatment entry in data set [2] is recorded as “no rats died”.

These data come from patent US11266709B2, “Methods for the regulation of matrix metalloproteinase expression” (Stealth BioTherapeutics Corp, priority 2013, dated 2022).
